Experimental data as given in PMC9737772, “Synthesis and Anti-Inflammatory Activity of 1-Methylhydantoin Cinnamoyl Imides” (Molecules, 2022).
Entries after “also recorded” stand apart in the source; their conditions may differ.

Tests used:
[1] = tested on: IL-1β secretion in RAW264.7 cells induced by LPS; assay: IL-1β content in supernatant of LPS-induced RAW264.7 cells (ELISA); type: cell-based, mouse
Text: Interleukin-1β (IL-1β) has strong proinflammatory activity and can induce the production of a variety of proinflammatory mediators, such as cytokines and chemokines. In this work, the ELISA method was used to determine the IL-1β content in the supernatant of RAW264.7 cells stimulated by LPS to evaluate the effects of five compounds on IL-1β secretion.
RAW264.7 mouse macrophages were purchased from Zhongqiao Xinzhou and cultured in DMEM supplemented with 10% fetal bovine serum (FBS) and 1% penicillin/streptomycin in a 37 °C, 5% CO2 incubator. The cells were passaged every two days to maintain the monolayer cell state.
The RAW264.7 cells in the logarithmic growth phase were seeded in a 24-well plate and placed in a 37 °C, 5% CO2 constant temperature incubator for culture. After 24 h, the culture medium was discarded. The blank group was added with 10% FBS DMEM 1 mL. The group was added with a medium containing 1 ug/mL LPS, and the experimental group was added with LPS and different concentrations of the target compound to make the final volume 1 mL. After 24 h of culture, the cell supernatant was taken and stored in a refrigerator at −20 °C for later use. The Griess kit was used to determine the concentration of NO in the supernatant, and a double antibody sandwich ELISA kit was used to detect TNF-α and IL-1β.

[2] = tested on: xylene-induced ear edema in mice; assay: Xylene-induced ear edema in mice; type: in vivo, Kunming mice; settings: for Degree of Edema: 30 μL xylene, 30 min, mean ± SD, n = 6; for Inhibition of ear swelling: xylene-induced ear edema
Procedure: To evaluate the differences in anti-inflammatory effects of the five compounds, the in vivo anti-inflammatory experiment was conducted based on the acute inflammation model of ear swelling induced by xylene. Under the inflammatory effect of 30 μL of xylene, the degree of ear swelling in the blank group and each experimental group was different. […] With an increase in dose the degree of ear swelling decreased, and the effect of ear swelling inhibition was more significant at high dose (100 mg/kg). Under the action of drugs, the five target compounds (1–5) have significant inhibitory effects on ear swelling (Figure 6).
Adult male Kunming mice (18–20 g) were bought from Liaoning Changsheng Biotechnology Co., Ltd. (Shenyang, China, License No. SCXK (Liao) 2015-0001). The breeding is carried out under standard conditions without pathogens (constant room temperature 20–22 °C, 55 ± 5% humidity, 12 h light–dark cycle and free access to food and water). The research protocol has been approved by the Animal Experiment Ethics Committee of the School of Pharmacy of Jilin University (20190048). All experimental operations follow the principles of laboratory animal care, and all animal experiments are conducted in accordance with the Guide for the Care and Use of Laboratory Animals (released by the National Research Council).
In this experiment, Kunming mice were randomly divided into two groups. One group was given 5% sodium carboxymethyl cellulose solution as the blank group, and the other group was given different concentrations of the target compound as the experimental group (high, medium and low doses); continuous intragastric administration was two days and the volume of intragastric administration was 0.2 mL. One hour after the last administration, 30 μL of xylene was evenly smeared on both sides of the mouse’s right ear. After 30 min, the mouse’s right ear was obviously red and swollen and the capillary congestion was severe. Cervical vertebrae were dislocated and sacrificed. The ears on both sides were quickly cut off, an 8 mm ear punch was used to punch holes at the same position on the ears on both sides and they were immediately weighed to calculate the weight difference.
The formula for the difference in ear weight is as follows:(2) D=Wr−Wl where Wr was the weight of the right ear and Wl was the weight of the left ear.
The formula for the inhibition rate of ear swelling is as follows:(3) Inhibition %=Dc−Dt/Dc×100% where Dc was the extent of ear edema of the control group and Dt was the extent of ear edema of the treatment group.

[3] = 80 μM, LPS, 24 h, RAW264.7, vs model group
[4] = LPS-stimulated RAW264.7, concentration not stated
[5] = 25 mg/kg intragastric for two days
[6] = 50 mg/kg intragastric for two days
[7] = 100 mg/kg (high dose) intragastric
[8] = 100 mg/kg intragastric for two days

Compound | melting point | inhibition of IL-1β secretion ([1]; 20 μM, LPS, 24 h, RAW264.7, vs model group) | inhibition of IL-1β secretion [1, 3] | inhibition of IL-1β secretion [1, 4] | Degree of Edema [2, 5] | Inhibition of ear swelling ([2]; 25 mg/kg intragastric) | Degree of Edema [2, 6] | Inhibition of ear swelling ([2]; 50 mg/kg intragastric) | Inhibition of ear swelling [2, 7] | Degree of Edema [2, 8]
CN1CC(=O)N(C(=O)/C=C/c2ccco2)C1=O [Compound 2, (E)-3-(3-(furan-2-yl)acryloyl)-1-methylimidazolidine-2,4-dione] | 128.9 to 129.8 °C | no obvious inhibitory effect on IL-1β | significant inhibitory effect on the secretion of IL-1β | reduce the secretion of TNF-α and IL-1β | 8.68 ± 0.79 mg | 29.14% | 7.96 ± 0.23 mg | 35.02% | 49.47% | 6.19 ± 1.13 mg
CC(=O)Oc1ccc(/C=C/C(=O)N2C(=O)CN(C)C2=O)cc1 [Compound 4, (E)-4-(3-(3-methyl-2,5-dioxoimidazolidin-1-yl)-3-oxoprop-1-en-1-yl)phenyl acetate] | 148.9 to 149.6 °C | – | significant inhibitory effect on the secretion of IL-1β | reduce the secretion of TNF-α and IL-1β; also recorded: significantly inhibited the secretion of inflammatory factors TNF-α and IL-1β | 11.03 ± 0.32 mg | 9.96% | 8.79 ± 0.76 mg | 28.24% | 40.16% | 7.33 ± 0.51 mg
